Our source for the IC50 values is US20240025907A1, “QUINAZOLINE PAN-KRas INHIBITORS” (Mirati Therapeutics, Inc., priority 2022, published 2024).

Usually IC50 stands for the concentration that gives 50% inhibition.

The subject of experiment [1] is KRas-mediated Phosphorylation of ERK in HCT116 cells. Kind of experiment: Cisbio HTRF pERK assay, HCT116 cells. In kind it is cell-based. The conditions noted are these: HCT116 cells, 3 hrs compound, read-out: Inhibition (HTRF IC50 nM) of KRas-mediated Phosphorylation of ERK, HCT116. Background: TR-FRET usually uses a lanthanide donor and a delayed reading to cut background.

For experiment [2], the system named is KRas-mediated Phosphorylation of ERK in PSN1 cells. Kind of experiment: Cisbio HTRF pERK assay, PSN1 cells. To be noted: 3 hour compound, read-out: Inhibition (HTRF IC50 nM) of KRas-mediated Phosphorylation of ERK, PSN1. In kind it is cell-based. How it is done: Inhibition of KRas Phosphorylation of ERK (HTRF) by Exemplary Compounds of Formula (I) • Cisbio HTRF Advanced pERK Assay Catalog #64AERPEH • Cell: MKN1, PSN1 • Procedure: • Day 1: Seed 6,000 cells/well −25 μl/well in 384-well white solid bottom plate; RPM1_10% FBS.

For experiment [3], the system named is KRas-mediated Phosphorylation of ERK in A549 cells. Kind of experiment: Cisbio HTRF pERK assay, A549 cells. In kind it is cell-based. The conditions noted are these: A549 cells, 3 hrs compound, read-out: Inhibition (HTRF IC50 nM) of KRas-mediated Phosphorylation of ERK, A549.
Experiment [4] deals with KRas-mediated Phosphorylation of ERK in AsPC-1 cells. Briefly: Cisbio HTRF pERK assay, AsPC-1 cells. The conditions noted are these: 3 hrs compound, read-out: Inhibition (HTRF IC50 nM) of KRas-mediated Phosphorylation of ERK, AsPC-1. In kind it is cell-based.
Experiment [5] concerns KRas-mediated Phosphorylation of ERK in H460 cells. Briefly: Cisbio HTRF pERK assay, H460 cells. To be noted: H460 cells, 3 hrs compound, read-out: Inhibition (HTRF IC50 nM) of KRas-mediated Phosphorylation of ERK, H460. In kind it is cell-based.
Experiment [6] concerns KRas-mediated Phosphorylation of ERK in H727 cells. Briefly: Cisbio HTRF pERK assay, H727 cells. The class given is cell-based. The conditions noted are these: 3 hrs compound, read-out: Inhibition (HTRF IC50 nM) of KRas-mediated Phosphorylation of ERK, H727.
The test system of experiment [7] is KRas-mediated Phosphorylation of ERK in H358 cells. Briefly: Cisbio HTRF pERK assay, H358 cells. The conditions noted are these: H358 cells, 3 hrs compound, read-out: Inhibition (HTRF IC50 nM) of KRas-mediated Phosphorylation of ERK, H358. In kind it is cell-based.
Another experiment concerns the target T1, KRas^G12D (Homo sapiens, UniProt P01116, G12D).
T1 construct: Biotinylated KRas (corresponding to amino acids 1-169, produced at Accelegan Inc.); biotin (biotinylated); purchased Accelegan Inc
Kind of experiment: KRas TR-FRET tracer displacement binding assay, G12D. To be noted: 60-minute incubation. How it is done: (§1) KRas^WT, KRas^G12A, KRas^G12C, KRas^G12D, KRas^G12R, KRas^G12S, KRas^G12V, KRas^G13D, or KRas^Q61H was used in the assay.
(§2) The ability of a compound to bind to KRas was measured using a TR-FRET displacement assay. Biotinylated KRas (corresponding to amino acids 1-169, produced at Accelegan Inc.) was incubated with custom made Cy5 labelled tracer, terbium streptavidin (Cisbio Inc.) and compound (1% DMSO final) in buffer (50 mM HEPES, pH 7.5, 5 mM MgCl2, 0.005% Tween-20 and 1 mM DTT). After a 60-minute incubation at room temperature, the reaction was measured using a BMG LABTECH CLARIO star Plus via TR-FRET.

A further experiment has as its target T2, KRas^G12C (Homo sapiens, UniProt P01116, G12C).
T2 construct: Biotinylated KRas (corresponding to amino acids 1-169, produced at Accelegan Inc.); biotin (biotinylated); purchased Accelegan Inc
Briefly: KRas TR-FRET tracer displacement binding assay, G12C. To be noted: 60-minute incubation. The method, then:
as §1, §2

In the next experiment the target is T3, KRas^G12V (Homo sapiens, UniProt P01116, G12V).
T3 construct: Biotinylated KRas (corresponding to amino acids 1-169, produced at Accelegan Inc.); biotin (biotinylated); purchased Accelegan Inc
T3 sequence (P01116 1-169 isoform P01116-2 G12V): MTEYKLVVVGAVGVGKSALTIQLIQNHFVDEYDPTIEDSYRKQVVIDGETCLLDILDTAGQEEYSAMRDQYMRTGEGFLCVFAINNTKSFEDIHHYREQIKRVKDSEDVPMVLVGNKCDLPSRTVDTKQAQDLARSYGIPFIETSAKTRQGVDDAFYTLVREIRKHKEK
Kind of experiment: KRas TR-FRET tracer displacement binding assay, G12V. To be noted: 60-minute incubation. The method, then:
as §1, §2

Another experiment addresses T4, KRas^G12S (Homo sapiens, UniProt P01116, G12S).
T4 construct: Biotinylated KRas (corresponding to amino acids 1-169, produced at Accelegan Inc.); biotin (biotinylated); purchased Accelegan Inc
Kind of experiment: KRas TR-FRET tracer displacement binding assay, G12S. The conditions noted are these: 60-minute incubation. The method, then:
as §1, §2

The target of the next experiment is T5, KRas^WT (Homo sapiens, UniProt P01116).
T5 construct: Biotinylated KRas (corresponding to amino acids 1-169, produced at Accelegan Inc.); biotin (biotinylated); purchased Accelegan Inc
T5 sequence (P01116 1-169 isoform P01116-2): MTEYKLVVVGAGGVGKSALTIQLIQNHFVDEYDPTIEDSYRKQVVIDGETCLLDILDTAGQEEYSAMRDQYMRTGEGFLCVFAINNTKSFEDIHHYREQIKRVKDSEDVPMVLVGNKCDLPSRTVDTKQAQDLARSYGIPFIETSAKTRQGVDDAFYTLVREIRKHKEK
Kind of experiment: KRas TR-FRET tracer displacement binding assay, WT. To be noted: 60-minute incubation. How it is done:
as §1, §2

Like-named read-outs stand apart in the source and are kept apart here.

T2 sequence (P01116 1-169 isoform P01116-2 G12C): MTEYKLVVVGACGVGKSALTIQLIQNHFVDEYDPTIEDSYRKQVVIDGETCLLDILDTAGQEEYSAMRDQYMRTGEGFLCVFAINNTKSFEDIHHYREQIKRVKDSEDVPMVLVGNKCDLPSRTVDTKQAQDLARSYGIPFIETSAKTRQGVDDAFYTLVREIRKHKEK
T1 sequence (P01116 1-169 isoform P01116-2 G12D): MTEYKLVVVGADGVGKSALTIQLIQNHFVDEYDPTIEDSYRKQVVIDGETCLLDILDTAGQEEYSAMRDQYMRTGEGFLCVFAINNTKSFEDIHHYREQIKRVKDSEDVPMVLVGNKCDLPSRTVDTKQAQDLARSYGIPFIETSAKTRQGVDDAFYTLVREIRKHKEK
T4 sequence (P01116 1-169 isoform P01116-2 G12S): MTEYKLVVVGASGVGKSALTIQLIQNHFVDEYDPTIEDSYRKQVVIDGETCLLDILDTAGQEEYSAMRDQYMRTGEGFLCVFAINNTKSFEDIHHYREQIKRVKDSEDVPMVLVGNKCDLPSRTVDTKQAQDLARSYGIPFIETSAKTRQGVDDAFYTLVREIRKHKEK

For `C=C1CN2CCC[C@@]2(COc2nc(N3CC4CCC(C3)N4)c3cc(Cl)c(-c4ccc(F)c5sc(N)c(C#N)c45)c(F)c3n2)C1` [Example 183, (S)-4-(4-((1R,5S)-3,8-diazabicyclo[3.2.1]octan-3-yl)-6-chloro-8-fluoro-2-(((S)-2-methylenetetrahydro-1H-pyrrolizin-7a(5H)-yl)methoxy)quinazolin-7-yl)-2-amino-7-fluorobenzo[b]thiophene-3-carbonitrile], the IC50 in [1] was 4800 nM; in experiment [2], 6150 nM; in [3], above 10000 nM; in [4] it was 254 nM; in [5], 8090 nM; in experiment [6], above 10000 nM. Further, the IC50 in [7] was 6740 nM.
With `CC1CN(C)CCCN1c1nc(N(C)C)c2cc(Cl)c(-c3ccc(F)c4sc(N)c(C#N)c34)c(F)c2n1` (stereo not shown) [Example 217, 2-amino-4-(6-chloro-2-(2,4-dimethyl-1,4-diazepan-1-yl)-4-(dimethylamino)-8-fluoroquinazolin-7-yl)-7-fluorobenzo[b]thiophene-3-carbonitrile], the 50% inhibitory concentration (IC50) was found to be 959 nM at KRas^G12D; 184 nM at KRas^G12C; 75 nM on KRas^G12V; 275 nM on KRas^G12S; 251 nM on KRas^WT.
As to `N#Cc1c(N)sc2c(F)ccc(-c3c(Cl)cc4c(N5CCCCC(=O)C5)nc(OC[C@@]56CCCN5C[C@H](F)C6)nc4c3F)c12` [Example 191, 2-amino-4-(6-chloro-8-fluoro-2-(((2R,7aS)-2-fluorotetrahydro-1H-pyrrolizin-7a(5H)-yl)methoxy)-4-(3-oxoazepan-1-yl)quinazolin-7-yl)-7-fluorobenzo[b]thiophene-3-carbonitrile], the IC50 in [1] (Homo sapiens, HCT-116, 3 h) amounted to 11 nM; in experiment [2] (Homo sapiens, PSN1, 3 h), 798 nM; in experiment [3] (Homo sapiens, A549, 3 h) it was 11 nM; in experiment [4] (Homo sapiens, ASPC1, 3 h) it was 8 nM; in experiment [5] (Homo sapiens, NCI-H460, 3 h) it was 10 nM; in experiment [6] (Homo sapiens, NCI-H727, 3 h), 12 nM. In addition, the IC50 in experiment [7] (Homo sapiens, NCI-H358, 3 h) turned out to be 2 nM.
`N#Cc1c(N)sc2c(F)ccc(-c3c(Cl)cc4c(N5CCCn6nc(N)cc6C5)nc(OC[C@@]56CCCN5C[C@H](F)C6)nc4c3F)c12` [Example 187, 2-amino-4-(4-(2-amino-7,8-dihydro-4H-pyrazolo[1,5-a][1,4]diazepin-5(6H)-yl)-6-chloro-8-fluoro-2-(((2R,7aS)-2-fluorotetrahydro-1H-pyrrolizin-7a(5H)-yl)methoxy)quinazolin-7-yl)-7-fluorobenzo[b]thiophene-3-carbonitrile]: the IC50 in experiment [1] (Homo sapiens, HCT-116, 3 h) worked out at 176 nM; in experiment [2] (Homo sapiens, PSN1, 3 h), 1060 nM; in experiment [3] (Homo sapiens, A549, 3 h) it was 106 nM; in experiment [4] (Homo sapiens, ASPC1, 3 h), 41 nM; in [5] (Homo sapiens, NCI-H460, 3 h) it was 78 nM; in experiment [6] (Homo sapiens, NCI-H727, 3 h), 148 nM. Further, the IC50 in experiment [7] (Homo sapiens, NCI-H358, 3 h) is 12 nM.
`N#Cc1c(N)sc2c(F)ccc(-c3c(Cl)cc4c(N5CCC5)nc(OC[C@@]56CCCN5C[C@H](F)C6)nc4c3F)c12` [Example 206, 2-amino-4-(4-(azetidin-1-yl)-6-chloro-8-fluoro-2-(((2R,7aS)-2-fluorotetrahydro-1H-pyrrolizin-7a(5H)-yl)methoxy)quinazolin-7-yl)-7-fluorobenzo[b]thiophene-3-carbonitrile]: the IC50 in [1] (Homo sapiens, HCT-116, 3 h) was found to be 367 nM; in experiment [2] (Homo sapiens, PSN1, 3 h), 4890 nM; in experiment [3] (Homo sapiens, A549, 3 h), 244 nM; in [4] (Homo sapiens, ASPC1, 3 h), 246 nM; in experiment [5] (Homo sapiens, NCI-H460, 3 h), 173 nM; in experiment [6] (Homo sapiens, NCI-H727, 3 h), 55 nM. The IC50 in experiment [7] (Homo sapiens, NCI-H358, 3 h) was 60 nM.
As to `CN(c1nc(OC[C@@]23CCCN2C[C@H](F)C3)nc2c(F)c(-c3ccc(F)c4sc(N)c(C#N)c34)c(Cl)cc12)C1CC1` [Example 203, 2-amino-4-(6-chloro-4-(cyclopropyl(methyl)amino)-8-fluoro-2-(((2R,7aS)-2-fluorotetrahydro-1H-pyrrolizin-7a(5H)-yl)methoxy)quinazolin-7-yl)-7-fluorobenzo[b]thiophene-3-carbonitrile], the concentration for half-maximal inhibition (IC50) was 661 nM in experiment [1] (Homo sapiens, HCT-116, 3 h); 4790 nM in [2] (Homo sapiens, PSN1, 3 h); 307 nM in [3] (Homo sapiens, A549, 3 h); 501 nM in experiment [4] (Homo sapiens, ASPC1, 3 h); 306 nM in experiment [5] (Homo sapiens, NCI-H460, 3 h); 226 nM in experiment [6] (Homo sapiens, NCI-H727, 3 h). In experiment [7] (Homo sapiens, NCI-H358, 3 h), the IC50 amounted to 82 nM.
On to `N#Cc1c(N)sc2c(F)ccc(-c3c(Cl)cc4c(N5CCCn6nc(N)c(Cl)c6C5)nc(OC[C@@]56CCCN5C[C@H](F)C6)nc4c3F)c12` (atropisomer, axis not shown; (aS)) [Example 189, 2-amino-4-((S)-4-(2-amino-3-chloro-7,8-dihydro-4H-pyrazolo[1,5-a][1,4]diazepin-5(6H)-yl)-6-chloro-8-fluoro-2-(((2R,7aS)-2-fluorotetrahydro-1H-pyrrolizin-7a(5H)-yl)methoxy)quinazolin-7-yl)-7-fluorobenzo[b]thiophene-3-carbonitrile], for which the IC50 in [1] stood at 2470 nM; in [2] it was 7470 nM; in experiment [3], 3350 nM; in [4], 472 nM; in [5] it was 1530 nM; in [6], 882 nM. For the same molecule, the IC50 in [7] is 327 nM.
Regarding `C=C1CN2CCC[C@]2(COc2nc(N3CC4CCC(C3)N4)c3cc(Cl)c(-c4ccc(F)c5sc(N)c(C#N)c45)c(F)c3n2)C1` [Example 181, (S)-4-(4-((1R,5S)-3,8-diazabicyclo[3.2.1]octan-3-yl)-6-chloro-8-fluoro-2-(((R)-2-methylenetetrahydro-1H-pyrrolizin-7a(5H)-yl)methoxy)quinazolin-7-yl)-2-amino-7-fluorobenzo[b]thiophene-3-carbonitrile], the IC50 in experiment [1] was 8030 nM; in [2], 5260 nM; in experiment [3], above 10000 nM; in [4], 950 nM; in experiment [5] it was 9660 nM; in experiment [6], 8500 nM. Also, the IC50 in [7] was found to be 4560 nM.
Take `C=C1CN2CCC[C@]2(COc2nc(N3CC4CCC(C3)N4)c3cc(Cl)c(-c4ccc(F)c5sc(N)c(C#N)c45)c(F)c3n2)C1` [Example 182, (R)-4-(4-((1R,5S)-3,8-diazabicyclo[3.2.1]octan-3-yl)-6-chloro-8-fluoro-2-(((R)-2-methylenetetrahydro-1H-pyrrolizin-7a(5H)-yl)methoxy)quinazolin-7-yl)-2-amino-7-fluorobenzo[b]thiophene-3-carbonitrile]: the IC50 came out at 114 nM in [1]; 1820 nM in experiment [2]; 377 nM in experiment [3]; 4 nM in experiment [4]; 207 nM in experiment [5]; 1390 nM in experiment [6]. Besides, the IC50 in [7] was found to be 136 nM.
